Reference: PubChem BioAssay (NCI)
“And” between values parts separate entries of the source, which are not always exact repeats. Equal values may be shown once.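 48-hour exposure; five concentrations; linearly interpolated endpoints. GI50 marks 50% less growth. The concentration for full growth arrest is given as TGI.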

Columns and labels:
Test in all cases: NCI-60 cell line screen, 48 h
EKVX NSCLC = system: EKVX NSCLC
SF-268 CNS = system: SF-268 CNS
SK-OV-3 ovarian = system: SK-OV-3 ovarian
LOX IMVI melanoma = system: LOX IMVI melanoma
SK-MEL-2 melanoma = system: SK-MEL-2 melanoma
CAKI-1 renal = system: CAKI-1 renal
HOP-92 NSCLC = system: HOP-92 NSCLC
RXF 393 renal = system: RXF 393 renal
SK-MEL-5 melanoma = system: SK-MEL-5 melanoma
SW-620 colon = system: SW-620 colon

SMILES	GI50 (EKVX NSCLC) [µM]	TGI (EKVX NSCLC) [µM]	GI50 (SF-268 CNS) [µM]	TGI (SF-268 CNS) [µM]	GI50 (SK-OV-3 ovarian) [µM]	TGI (SK-OV-3 ovarian) [µM]	GI50 (LOX IMVI melanoma)	TGI (LOX IMVI melanoma) [µM]	GI50 (SK-MEL-2 melanoma) [µM]	TGI (SK-MEL-2 melanoma) [µM]	GI50 (CAKI-1 renal) [µM]	TGI (CAKI-1 renal) [µM]	GI50 (HOP-92 NSCLC) [µM]	TGI (HOP-92 NSCLC) [µM]	GI50 (RXF 393 renal) [µM]	TGI (RXF 393 renal) [µM]	GI50 (SK-MEL-5 melanoma) [µM]	TGI (SK-MEL-5 melanoma) [µM]	GI50 (SW-620 colon) [µM]	TGI (SW-620 colon) [µM]
COc1cc(/C=C2\C(=O)Nc3ccc(Cl)cc32)cc(OC)c1OC	13.8	> 100	8.99	> 100	13.4	33.8	21.9 µM	> 100	31.9	> 100	23.6	> 100	3.39	22.9	1.82	8.22	12.7	> 100	29.9	> 100
COc1cc(-c2n/c(=C\c3c(O)[nH]c4ccccc34)cc3c2=Nc2ccccc2-3)ccc1F	20.9	> 100	10.6	44.2	17.1	43.5	9.09 µM	59.7	21.7	62.2	38.5	> 100	3.29	19.9	3.61	22.2	4.45	24.1	4.15	86.7
CCOC(=O)NC(=O)c1cn(CCN(CCO)C(=O)NCCCCCCNC(=O)N(CCO)CCn2cc(C(=O)NC(=O)OCC)c(=O)[nH]c2=O)c(=O)[nH]c1=O		> 100		> 100				> 100		> 100		> 100		> 100		> 100		> 100		> 100
N#CC1(C#N)C(=O)c2ccncc2C1=O		> 100		> 100		> 100				> 100		> 100		> 100		> 100		> 100		> 100
CCCC[n+]1ccn(-c2nc3ccccc3n2C)c1		> 100				> 100		> 100		> 100		> 100				> 100		> 100		> 100
C/C=C(\C)C(=O)OC1C2C(C)=CC(=O)C(O)C2(C)C2C3(O)OCC24C1OC(=O)C(OC(C)=O)C4C(C)C3O (stereo unspecified)		0.103		0.0887		1.12		0.375		0.073		0.674		0.0508		0.063				0.525
CN(CCO)CCC1COc2ccccc2O1 (stereo unspecified)		> 10		> 10		> 10		> 10		> 10		> 10				> 10		> 10		> 10
COC1=CC(c2ccc[nH]2)=N/C1=C\c1[nH]c(C)c(CC(=O)NCc2ccccc2)c1C	1.06	2.47			1.87	3.39			1.71	3.29	1.48	2.85	1.4	2.94	1.55	2.95	1.53	2.89		
O=C(N/N=C\c1ccc(N(CCCl)CCCl)cc1)c1cccnc1	> 100	> 100	27	> 100			21.3 µM	> 100	> 100	> 100	8.53	> 100	30.6	> 100	19.7	85.7	36.3	> 100	> 100	> 100
N/C(=C\c1ccc(/C=C(\NC(=O)c2ccccc2)c2nc3c([nH]2)C(=O)c2ccccc2C3=O)cc1)c1nc2c([nH]1)C(=O)c1ccccc1C2=O		55.7		30.6		48.8		47.1				60.7		22.2		26.2		31.5		50.5
COc1ccc2c(c1)C(=O)c1c-2n(CCCN=[N+]=[N-])c(=O)c2cc([N+](=O)[O-])ccc12		> 100	< 0.001		7.14	28.1	0.0707 µM and 0.177 µM	0.737	14.5	39.1	0.0018	0.00531	0.0646		0.00139		0.0106	0.0849	< 0.001	0.783
N#C[S-].[Ce+3].c1ccc(-c2ccccn2)nc1.c1ccc(-c2ccccn2)nc1.c1ccc(-c2ccccn2)nc1	8.61	> 100			27	60.7	4.2 µM	63.7	25.4	63.1	10.8	91.3			22.7	98.4	3.78	20.4	38.9	> 100
CC1=C/C(=N\NS(=O)(=O)c2ccc([N+](=O)[O-])cc2)CC(C)(C)C1		> 100		> 100		> 100		> 100		> 100		> 100		75.6		> 100		> 100		> 100
COC(Cc1cc(C(O)(c2ccc(C(C)(C)C)cc2)c2cc(CC(OC)(c3cc(C(OC)(c4ccc(C(C)(C)C)cc4)c4ccc(C(C)(C)C)cc4)c(C)cc3C)c3cc(C(OC)(c4ccc(C(C)(C)C)cc4)c4ccc(C(C)(C)C)cc4)c(C)cc3C)c(C)cc2C)c(C)cc1C)(c1cc(C(OC)(c2ccc(C(C)(C)C)cc2)c2ccc(C(C)(C)C)cc2)c(C)cc1C)c1cc(C(OC)(c2ccc(C(C)(C)C)cc2)c2ccc(C(C)(C)C)cc2)c(C)cc1C		> 75		> 75		> 75		> 75		> 75		> 75		> 75		> 75		> 75		> 75
COc1nc2ccc(Cl)c(C(O)c3ccccc3)c2nc1OC (stereo unspecified)		> 100		84.5				36.5		45		45.3		60.6		41.3		30.3		82.7
